According to publication PMC7195821 (Cell Discovery, 2020):
Where a name gives a salt, the structure may show the parent alone.

Legend:
[1] = system: SARS-CoV-2; conditions: cited from earlier work
[2] = system: SARS-CoV-2; experiment: Antiviral activity against SARS-CoV-2 in Vero E6 cells, qRT-PCR of virus yield in supernatant at 48 h p.i.; format: cell-based; conditions: for anti-SARS-CoV-2 activity (in words): up to the highest drug concentrations; for EC50: Severe acute respiratory syndrome coronavirus 2, Vero C1008, 48 h, read-out: 50% maximal effective concentration (EC50)
[3] = Cytotoxicity by cell counting kit-8 (CCK8) assay; conditions: African green monkey
[4] = system: SARS-CoV; conditions: cited from earlier work
[5] = system: COVID-19 patients; parameters: method as in PMID 32176772; conditions: retrospective study; cited from earlier work
[6] = system: SARS-CoV-2 NP expression; experiment: Time-of-addition experiment, viral NP expression by western blot; format: cell-based; conditions: arbidol 10 μM, 16 h p.i.
Method: (§1) The antiviral efficacy was evaluated in Vero E6 cells by qRT-PCR analysis of virus yield at 48 h p.i. Data represent the mean ± standard deviation (SD) from two independent repeats. b, c Time-of-addition experiment of arbidol. Three experimental groups (Full-time, Entry, and Post-entry) were set up as described in the Supplementary Methods. At 16 h p.i., virus yield in the cell supernatant was quantified by qRT-PCR (b), and the expression of NP in infected cells was analyzed by western blots (c). […] The co-localization of virions with EEs or LEs was analyzed by immunofluorescence assays as described in the Supplementary Methods. e The portion of virions that co-localized with EEs or ELs in each group (n > 150 cells) was quantified by Image J. f Representative confocal microscopic images of virions (red) and LAMP1^+ ELs (green) in each group. The nuclei (blue) were stained with Hoechst 33258 dye. White arrows: virions co-localized with ELs; bars: 10 μm. For (b) and (e), statistical analysis was performed using a one-way analysis of variance (ANOVA) with GraphPad Prism. For (d), statistical analysis was performed and calculated by unpaired two-tailed t test. *P < 0.05; ***P < 0.001; ns, not significant.
Arbidol was incubated with cells during the virus entry process (Entry), the post-entry stages (Post-entry), or the entire process of infection (Full-time) and progeny virus yield was quantified by qRT-PCR.
Viral RNA/DNA Extraction Kit; Takara, CAT No. 9766). Three microliter out of 30 μL total eluted RNA was used for cDNA synthesis with a PrimeScript RT Reagent Kit with gDNA Eraser (Takara, CAT No. RR047A). The qRT-PCR was performed with TB Green Premix Ex Taq II (Takara, CAT No. RR820A) on a StepOne Plus Real-time PCR system (AB). The primers used for qRT-PCR were RBD-qF1: […]
RBD-qR1:5’-[…]-3’. The experiments were performed in triplicate with two independent repeats and the data represent the mean ± SD from […]
Time-of-addition experiment […]
At 16 h p.i., virus production in the culture supernatants was quantified by qRT -PCR. […]

[7] = system: SARS-CoV-2 virions; experiment: Intracellular trafficking: co-localization of virions with EEs or ELs by immunofluorescence; format: cell-based; conditions: arbidol 10 μM, MOI 5
[8] = system: SARS-CoV-2; experiment: Cytopathic effects (CPE) and immunofluorescence staining of infected cells; format: cell-based; conditions: Vero E6 cells, 48 h p.i., MOI 0.05
[9] = system: SARS-CoV-2 binding; experiment: Virus binding assay on Vero E6 cells at 4 °C, qRT-PCR; format: cell-based; conditions: arbidol 10 μM, 4 °C for 1 h, MOI 0.05, P < 0.001
[10] = humans, single oral administration of 800 mg; cited from earlier work
[11] = system: influenza viruses; conditions: read-out: EC50 against different influenza viruses; cited from earlier work
[12] = system: SARS-CoV-2; experiment: Time-of-addition experiment, virus yield by qRT-PCR; format: cell-based
Method: as §1, with “For (b) and (e), statistical analysis was performed using a one-way analysis of variance (ANOVA) with GraphPad Prism.” left out
Arbidol was incubated with cells during the virus entry process (Entry), the post-entry stages (Post-entry), or the entire process of infection (Full-time) and progeny virus yield was quantified by qRT-PCR. […]
At 16 h p.i., virus production in the culture supernatants was quantified by qRT -PCR.

For `COC(=O)OCOc1c2n(ccc1=O)N([C@@H]1c3ccccc3SCc3c1ccc(F)c3F)[C@@H]1COCCN1C2=O` [Baloxavir, Baloxavir marboxil], which “inhibition of SARS-CoV-2 in vitro (in words)” value ([1]; ref 11 (Choy et al.)) is on record?
Its value is “failed to inhibit”.

And the “anti-SARS-CoV-2 activity (in words)” value ([2]; Vero E6 cells)?
Its value is “failed to block SARS-CoV-2 infection”.

What about the “inhibition of SARS-CoV-2 infection” value ([2]; at 50 μM, Vero E6 cells, 48 h p.i.) of the same compound?
The value was ~ 29%.

What does the source list for `[H]/N=C(\N)N[C@H]1C=C(C(=O)O)O[C@@H]([C@H](OC)[C@H](O)CO)[C@@H]1NC(C)=O` [Laninamivir]?
CC50 at 24 h [3]: > 100 µM; EC50 [2]: > 30 µM; anti-SARS-CoV-2 activity (in words) ([2]; Vero E6 cells): did not exhibit anti-SARS-CoV-2 activity

Which “anti-SARS-CoV-2 activity (in words)” value ([2]; Vero E6 cells) does the source give for `CCC(CC)[C@H](NC(C)=O)[C@@H]1[C@H](O)[C@@H](C(=O)O)C[C@H]1N=C(N)N.O.O.O` [Peramivir, Peramivir Trihydrate] here?
Its value is “did not exhibit anti-SARS-CoV-2 activity”.

Which “inhibition of SARS-CoV (in words)” value [4] does the source give for `CC(=O)N[C@H]1[C@H]([C@H](O)[C@H](O)CO)OC(C(=O)O)=C[C@@H]1N=C(N)N` [Zanamivir] here?
The value was “ineffective”.

What about the CC50 at 24 h [3] of the same compound?
Its CC50 at 24 h is greater than 100 µM.

What about the EC50 [2] of the same compound?
Its EC50 is greater than 100 µM.

And the “anti-SARS-CoV-2 activity (in words)” value ([2]; Vero E6 cells)?
The value was “did not exhibit anti-SARS-CoV-2 activity”.

Which results are given for `CCOC(=O)c1c(CSc2ccccc2)n(C)c2cc(Br)c(O)c(CN(C)C)c12` [arbidol, Arbidol hydrochloride]?
discharging rate and mortality rate of COVID-19 patients (in words) [5]: tendency to improve the discharging rate and decrease the mortality rate; expression level of viral NP (NP/GAPDH), % of the DMSO group, Entry ([6]; Entry stage): 41%; expression level of viral NP (NP/GAPDH), % of the DMSO group, Full-time ([6]; Full-time): 13%; expression level of viral NP (NP/GAPDH), % of the DMSO group, Post-entry ([6]; Post-entry stage): 61%; virions co-localized with EEs ([7]; 30 min p.i., DMSO 24.0%): 21.4%; virions co-localized with EEs ([7]; 60 min p.i., DMSO 5.1%): 4.1%; virions co-localized with ELs ([7]; 60 min p.i., DMSO 18.3%, P < 0.05): 22.4%; virions co-localized with EEs ([7]; 90 min p.i., DMSO 3.2%): 2.8%; virions co-localized with ELs ([7]; 90 min p.i., DMSO ~13.5%, P < 0.001): ~ 23.6%; viral NP expression and CPE due to SARS-CoV-2 [8]: substantially reduced; portion of unbound virions, % of the control group [9]: 156%; Cmax [10]: ~4.1 µM; EC50 [11]: 2.5 to 20 µM; inhibition at 10 µM ([12]; Severe acute respiratory syndrome coronavirus 2, 16 h, read-out: inhibition rate of virus yield, Post-entry): ~55%; inhibition of virus yield, Entry ([12]; arbidol 10 μM during virus entry, MOI 0.05, 16 h p.i.): ~ 75%

With `NC(=O)c1nc(F)c[nH]c1=O` [favipiravir] as the compound, how does the “efficacy against SARS-CoV-2 in vitro (in words)” value [1] read?
Its value is “showed a certain efficacy”.
